Results as given in PubChem BioAssay (NCI).
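How tested: cells in 96-well plates exposed to compound for 48 hours at five concentrations. GI50 is the concentration that inhibits growth by half. TGI marks complete inhibition of growth.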

Experiments:
Assay in all cases: inhibition of tumour cell growth, NCI panel, 48 h
DLD-1 colon = system: DLD-1 colon
DMS 114 small cell lung = system: DMS 114 small cell lung
DU-145 prostate = system: DU-145 prostate
LXFL 529 NSCLC = system: LXFL 529 NSCLC
M19-MEL melanoma = system: M19-MEL melanoma
MDA-MB-435 = system: MDA-MB-435
PC-3 prostate = system: PC-3 prostate
T-47D breast = system: T-47D breast
XF 498 CNS = system: XF 498 CNS
SNB-78 CNS = system: SNB-78 CNS

| Compound | TGI (DLD-1 colon) [µM] | TGI (DMS 114 small cell lung) [µM] | TGI (LXFL 529 NSCLC) [µM] | TGI (M19-MEL melanoma) [µM] | TGI (XF 498 CNS) [µM] | TGI (SNB-78 CNS) [µM] | further results |
| --- | --- | --- | --- | --- | --- | --- | --- |
| Cc1cc(C2CCCCC2)n(O)c(=O)c1 | > 100 | > 100 | > 100 | > 100 | 35.8 | – | GI50 (DU-145 prostate): 2.04 µM; TGI (DU-145 prostate): > 100 µM; GI50 (MDA-MB-435): 2.27 µM; TGI (MDA-MB-435): > 100 µM; GI50 (PC-3 prostate): 3.02 µM; TGI (PC-3 prostate): > 100 µM; GI50 (T-47D breast): 2.63 µM; TGI (T-47D breast): > 100 µM |
| CN(C)C(=S)SN(C)C(=O)Nc1ccccc1 | > 100 | 27.4 | > 100 | > 31.6 | – | > 100 | TGI (DU-145 prostate): > 100 µM; TGI (MDA-MB-435): > 72.5 µM; TGI (PC-3 prostate): > 100 µM; TGI (T-47D breast): 99.1 µM |
| CSc1ccc(/C=C2/C[N+](C)(C)C/C(=C/c3ccc(SC)cc3)C2=O)cc1 | 22.8 | 21.1 | – | 19.8 | 29.1 | > 100 | – |
| CCC(C)(O)c1cn(-c2cccc(S(=O)(=O)O)c2)nn1 (stereo not drawn) | > 100 | > 100 | > 100 | – | > 100 | > 100 | – |
| CCc1cccc(C)c1NC(C)=O | > 100 | > 100 | > 100 | > 100 | > 100 | > 100 | – |
| Cc1ccc(NC(=O)C2C(=O)N(c3ccc(C)c(C)c3)C(=O)/C2=N/O)cc1C (stereo not drawn) | > 100 | > 100 | > 100 | – | > 100 | > 100 | – |
| CNC=O.[O]=[Ge].[O]=[Ge].[O]=[Ge].[O]=[Ge][OH].[O]=[Ge][OH] | > 100 | > 100 | > 100 | > 100 | > 100 | > 100 | GI50 (LXFL 529 NSCLC): > 100 µM |
| O=c1[nH]c(=O)n(C2CC(O)C(CS)O2)cc1F (stereo not drawn) | > 100 | > 100 | – | > 100 | > 100 | > 100 | TGI (DU-145 prostate): > 100 µM; TGI (MDA-MB-435): > 100 µM; TGI (PC-3 prostate): > 100 µM; TGI (T-47D breast): > 100 µM |
| O=S(O)CCCCSSCCCCSSCCCCS(=O)O | > 100 | > 100 | 28.4 | > 100 | 21.4 | 70.5 | – |
| N#CCCN(CCC#N)c1ccc(C(=O)NN)cc1 | > 100 | > 100 | > 100 | > 100 | > 100 | > 100 | – |
| COC(=O)C(=O)C(C(=O)C(=O)Nc1ccc(C)cc1C)c1nc2ccccc2[nH]c1=O (stereo not drawn) | > 100 | – | > 100 | > 100 | > 100 | > 100 | – |
| NCCCNCCSSCCCCS(=O)O | > 100 | > 100 | 92.2 | 40.5 | 37.4 | > 100 | – |
| CCN(CC)C(=O)C/C(C)=N/NC(=O)c1ccncc1 | > 100 | > 100 | > 100 | – | > 100 | > 100 | – |
| O=C1C2=C(CC3C(C2)C3(Br)Br)C(=O)C2=C1CC1C(C2)C1(Br)Br (stereo not drawn) | > 100 | – | > 100 | > 100 | > 100 | > 100 | – |
| Cc1cccc(N2C(=O)C(Cl)=C(Cl)C2=O)c1 | > 60.7 | > 100 | > 56.3 | > 100 | > 100 | > 100 | – |
| CSc1nc(NC2OC(COC(C)=O)C(OC(C)=O)C(OC(C)=O)C2OC(C)=O)c2c(OC(C)=O)c(C)c(=O)oc2n1 (stereo not drawn) | > 100 | > 100 | > 100 | > 100 | > 100 | > 100 | – |
| Cc1cc(NS(=O)(=O)c2ccc(NC(=O)c3cccc4c(=O)c5ccccc5[nH]c34)cc2)no1 | > 100 | > 100 | 89.2 | > 100 | 55.4 | > 100 | – |
| N#Cc1cnsc1 | > 100 | > 100 | > 100 | > 100 | > 100 | > 100 | – |
| NC1C2(CCCCCC2)NC(=O)C12CCCCCC2 (stereo not drawn) | > 100 | > 100 | > 100 | – | > 100 | > 100 | – |
| CC(=O)NC(CCCN)C(=O)NCc1ccccc1 (stereo not drawn) | > 100 | > 100 | > 100 | > 100 | > 100 | > 100 | – |
| CC(C)=[CH][Sb]([Br])([CH]=C(C)C)([CH]=C(C)C)[CH]=C(C)C | > 100 | 4.85 | > 100 | > 100 | > 100 | – | GI50 (DLD-1 colon): 37.3 µM; GI50 (DMS 114 small cell lung): 1.61 µM; GI50 (LXFL 529 NSCLC): 6.58 µM; GI50 (M19-MEL melanoma): 6.14 µM; GI50 (XF 498 CNS): 16.4 µM |
| COC(=O)c1cc2c(c(C(=O)OC)c1O)C(=O)C=CC2=O | > 46.1 | > 78.8 | 9.1 | > 58.5 | > 100 | > 66.8 | GI50 (DLD-1 colon): > 9.1 µM; GI50 (DMS 114 small cell lung): > 9.1 µM; GI50 (LXFL 529 NSCLC): 4.16 µM; GI50 (M19-MEL melanoma): > 9.1 µM; GI50 (SNB-78 CNS): > 9.1 µM; GI50 (XF 498 CNS): 37.8 µM |
| COC(=O)C1=C(c2ccc3c(c2)OCO3)O[C@H](c2ccc3c(c2)OCO3)[C@H]1COC(C)=O | > 100 | > 100 | > 100 | > 100 | > 100 | > 100 | – |
| COc1cc(Cc2cc(OC)c(OC)c(OC)c2)ccc1O | > 100 | > 100 | > 100 | > 100 | > 100 | > 100 | – |
| N#CCCN(c1ccc(/C=C2\N=C(c3ccc(Cl)cc3)OC2=O)cc1)S(=O)(=O)c1ccccc1 | > 100 | > 100 | > 100 | > 100 | > 100 | – | – |
| N#CCCN(CCC#N)c1ccc(/C=C2\N=C(CN3C(=O)c4ccccc4C3=O)OC2=O)cc1 | – | > 100 | > 100 | > 100 | > 100 | – | – |
| COC(=O)CSc1n[nH]c(-c2ccc(O)c([N+](=O)[O-])c2)n1 | > 100 | – | > 100 | – | > 100 | – | – |
